This passage reports IC50 results from ChEMBL document CHEMBL1150262, “Ring size of somatostatin analogues (ODT-8) modulates receptor selectivity and binding affinity” (J Med Chem, 2008).

Assay [1] concerns the target Somatostatin receptor type 2 (Homo sapiens, UniProt P30874). Nature of the assay: Displacement of [125I]-[Leu8, DTrp22, Tyr25]SRIF-28 from human cloned sst2 receptor expressed in CCL39 cells. Format: cell-based. (Displacement assays read how much labelled ligand stays bound in the presence of the test substance.)
Assay [2] concerns the target Somatostatin receptor type 5 (Homo sapiens, UniProt P35346). In words: Displacement of [125I]-[Leu8, DTrp22, Tyr25]SRIF-28 from human cloned sst5 receptor expressed in CHOK1 cells. Format: cell-based, CHO-K1.
Assay [3] addresses Somatostatin receptor type 1 (Homo sapiens, UniProt P30872). In words: Displacement of [125I]-[Leu8, DTrp22, Tyr25]SRIF28 from human cloned sst1 receptor.
In assay [4] the target is Somatostatin receptor type 3 (Homo sapiens, UniProt P32745). In words: Displacement of [125I]-[Leu8, DTrp22, Tyr25]SRIF-28 from human cloned sst3 receptor expressed in CCL39 cells. Format: cell-based.
Somatostatin receptor type 3, sequence (P32745 whole entry): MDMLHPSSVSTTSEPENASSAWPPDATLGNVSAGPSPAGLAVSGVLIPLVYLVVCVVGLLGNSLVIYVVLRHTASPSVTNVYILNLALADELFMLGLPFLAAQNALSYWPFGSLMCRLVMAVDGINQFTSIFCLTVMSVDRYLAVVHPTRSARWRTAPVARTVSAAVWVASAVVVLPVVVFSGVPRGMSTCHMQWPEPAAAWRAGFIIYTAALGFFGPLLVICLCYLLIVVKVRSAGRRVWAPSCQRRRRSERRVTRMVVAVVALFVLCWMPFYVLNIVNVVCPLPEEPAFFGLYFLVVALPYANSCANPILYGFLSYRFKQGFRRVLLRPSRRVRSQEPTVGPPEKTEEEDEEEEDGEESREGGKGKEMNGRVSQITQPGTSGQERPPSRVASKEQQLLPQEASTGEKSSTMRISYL
For assay [5], the target named is Somatostatin receptor type 4 (Homo sapiens, UniProt P31391). Nature of the assay: Displacement of [125I]-[Leu8, DTrp22, Tyr25]SRIF-28 from human cloned sst4 receptor expressed in CCL39 cells. Format: cell-based.
Somatostatin receptor type 4, sequence (P31391 whole entry): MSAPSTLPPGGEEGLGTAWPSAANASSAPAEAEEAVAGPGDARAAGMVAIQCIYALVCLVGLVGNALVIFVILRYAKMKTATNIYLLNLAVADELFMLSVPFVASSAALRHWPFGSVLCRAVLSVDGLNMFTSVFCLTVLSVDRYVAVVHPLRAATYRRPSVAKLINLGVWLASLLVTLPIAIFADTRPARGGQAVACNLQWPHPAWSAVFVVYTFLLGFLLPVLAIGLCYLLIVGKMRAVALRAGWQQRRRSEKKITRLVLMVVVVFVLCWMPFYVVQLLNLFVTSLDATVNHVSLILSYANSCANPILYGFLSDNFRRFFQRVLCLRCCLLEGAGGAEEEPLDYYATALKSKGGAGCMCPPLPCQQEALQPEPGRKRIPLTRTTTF

Somatostatin receptor type 5, sequence (P35346 whole entry): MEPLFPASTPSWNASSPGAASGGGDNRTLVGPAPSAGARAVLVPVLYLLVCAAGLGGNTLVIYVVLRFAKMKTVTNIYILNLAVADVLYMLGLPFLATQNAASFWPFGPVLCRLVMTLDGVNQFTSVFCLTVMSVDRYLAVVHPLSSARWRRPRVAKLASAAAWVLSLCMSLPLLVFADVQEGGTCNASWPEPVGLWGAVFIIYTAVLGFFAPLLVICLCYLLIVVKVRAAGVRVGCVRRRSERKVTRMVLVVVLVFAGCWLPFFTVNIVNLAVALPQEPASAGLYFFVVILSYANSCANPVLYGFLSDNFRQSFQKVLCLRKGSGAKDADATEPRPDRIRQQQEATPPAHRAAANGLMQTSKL
Somatostatin receptor type 2, sequence (P30874 whole entry): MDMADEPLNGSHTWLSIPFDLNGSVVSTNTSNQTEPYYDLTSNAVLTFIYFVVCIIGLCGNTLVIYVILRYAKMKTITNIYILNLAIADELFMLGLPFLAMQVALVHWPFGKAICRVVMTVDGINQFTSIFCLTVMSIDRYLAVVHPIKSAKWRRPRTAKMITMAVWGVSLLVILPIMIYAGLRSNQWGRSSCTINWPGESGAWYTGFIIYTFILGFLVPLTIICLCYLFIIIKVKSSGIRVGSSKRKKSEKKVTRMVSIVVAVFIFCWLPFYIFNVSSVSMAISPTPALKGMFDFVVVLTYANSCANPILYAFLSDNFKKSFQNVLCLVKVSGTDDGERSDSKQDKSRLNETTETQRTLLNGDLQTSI
Somatostatin receptor type 1, sequence (P30872 whole entry): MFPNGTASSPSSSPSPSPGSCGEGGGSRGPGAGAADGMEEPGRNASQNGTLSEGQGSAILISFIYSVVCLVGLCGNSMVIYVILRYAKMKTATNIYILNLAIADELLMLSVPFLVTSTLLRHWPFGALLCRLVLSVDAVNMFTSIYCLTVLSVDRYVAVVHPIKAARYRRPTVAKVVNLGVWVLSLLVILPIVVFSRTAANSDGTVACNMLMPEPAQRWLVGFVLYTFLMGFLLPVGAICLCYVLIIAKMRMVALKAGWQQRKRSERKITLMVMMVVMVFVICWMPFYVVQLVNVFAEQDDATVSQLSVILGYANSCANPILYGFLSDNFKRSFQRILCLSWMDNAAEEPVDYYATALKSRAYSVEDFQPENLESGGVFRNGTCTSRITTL

On to `CC(=O)N[C@@H]1CSSC[C@@H](C(=O)O)NC(=O)[C@H](Cc2ccccc2)NC(=O)[C@H]([C@@H](C)O)NC(=O)[C@H](CCCCN)NC(=O)[C@@H](Cc2c[nH]c3ccccc23)NC(=O)[C@H](Cc2ccccc2)NC(=O)[C@H](Cc2ccccc2)NC1=O`, for which the IC50 (commonly the concentration needed to halve the response being measured) amounted to 8 nM in assay [1]; 9.1 nM in assay [2]; 16 nM in assay [3]; 19 nM in assay [4]; 0.7 nM in assay [5].

For `CC(=O)N[C@@H]1SS[C@H](C(=O)O)NC(=O)[C@H](Cc2ccccc2)NC(=O)[C@H]([C@@H](C)O)NC(=O)[C@H](CCCCN)NC(=O)[C@@H](Cc2c[nH]c3ccccc23)NC(=O)[C@H](Cc2ccccc2)NC(=O)[C@H](Cc2ccccc2)NC1=O`, the IC50 in assay [1] was determined as 34 nM; in assay [2] it was 57 nM; in assay [3], 302 nM; in assay [4], 19 nM; in assay [5], 1.6 nM.

Take `CC(=O)N[C@@H]1CSS[C@@H](C(=O)O)NC(=O)[C@H](Cc2ccccc2)NC(=O)[C@H]([C@@H](C)O)NC(=O)[C@H](CCCCN)NC(=O)[C@@H](Cc2c[nH]c3ccccc23)NC(=O)[C@H](Cc2ccccc2)NC(=O)[C@H](Cc2ccccc2)NC1=O`: the IC50 in assay [1] was 4.8 nM; in assay [2], 17 nM; in assay [3] it was greater than 1000 nM; in assay [4] it was 36 nM; in assay [5], 3 nM.

Turning to `C[C@@H](O)[C@@H]1NC(=O)[C@H](CCCCN)NC(=O)[C@@H](Cc2c[nH]c3ccccc23)NC(=O)[C@H](Cc2ccccc2)NC(=O)[C@H](Cc2ccccc2)NC(=O)[C@H](N)CSSC[C@H](C(=O)O)NC(=O)[C@H](Cc2ccccc2)NC1=O`, the IC50 in assay [1] was 11 nM; in assay [2] it was 8.7 nM; in assay [3] it was greater than 1000 nM; in assay [4], 6.3 nM; in assay [5] it was 2.6 nM.

In the case of `CC(=O)N[C@H]1SSC[C@H](C(=O)O)NC(=O)[C@H](Cc2ccccc2)NC(=O)[C@H]([C@@H](C)O)NC(=O)[C@H](CCCCN)NC(=O)[C@@H](Cc2c[nH]c3ccccc23)NC(=O)[C@H](Cc2ccccc2)NC(=O)[C@H](Cc2ccccc2)NC1=O`, the IC50 is 13 nM in assay [1]; 50 nM in assay [2]; greater than 1000 nM in assay [3]; 28 nM in assay [4]; 5 nM in assay [5].

With `C[C@@H](O)[C@@H]1NC(=O)[C@H](CCCCN)NC(=O)[C@@H](Cc2c[nH]c3ccccc23)NC(=O)[C@H](Cc2ccccc2)NC(=O)[C@H](Cc2ccccc2)NC(=O)[C@@H](N)CSSC[C@H](C(=O)O)NC(=O)[C@H](Cc2ccccc2)NC1=O`, the IC50 was 18 nM in assay [1]; 27 nM in assay [2]; greater than 1000 nM in assay [3]; 18.5 nM in assay [4]; 8.2 nM in assay [5].

Regarding `CC(=O)N[C@@H]1CSS[C@H](C(=O)O)NC(=O)[C@H](Cc2ccccc2)NC(=O)[C@H]([C@@H](C)O)NC(=O)[C@H](CCCCN)NC(=O)[C@@H](Cc2c[nH]c3ccccc23)NC(=O)[C@H](Cc2ccccc2)NC(=O)[C@H](Cc2ccccc2)NC1=O`, the IC50 stood at 18.5 nM in assay [1]; 51 nM in assay [2]; 540 nM in assay [3]; 30 nM in assay [4]; 1.5 nM in assay [5].

As to `CC(=O)N[C@H]1CSSC[C@H](C(=O)O)NC(=O)[C@H](Cc2ccccc2)NC(=O)[C@H]([C@@H](C)O)NC(=O)[C@H](CCCCN)NC(=O)[C@@H](Cc2c[nH]c3ccccc23)NC(=O)[C@H](Cc2ccccc2)NC(=O)[C@H](Cc2ccccc2)NC1=O`, the IC50 in assay [1] is 4.9 nM; in assay [2], 11 nM; in assay [3], greater than 1000 nM; in assay [4] it was 12 nM; in assay [5], 4.5 nM.

As for `CC(=O)N[C@H]1CCSSC[C@@H](C(=O)O)NC(=O)[C@H](Cc2ccccc2)NC(=O)[C@H]([C@@H](C)O)NC(=O)[C@H](CCCCN)NC(=O)[C@@H](Cc2c[nH]c3ccccc23)NC(=O)[C@H](Cc2ccccc2)NC(=O)[C@H](Cc2ccccc2)NC1=O`, the IC50 in assay [1] was determined as 6.5 nM; in assay [2], 28 nM; in assay [3], 96 nM; in assay [4] it was 38 nM; in assay [5] it was 0.9 nM.

On to `CC(=O)N[C@@H]1CCSSC[C@@H](C(=O)O)NC(=O)[C@H](Cc2ccccc2)NC(=O)[C@H]([C@@H](C)O)NC(=O)[C@H](CCCCN)NC(=O)[C@@H](Cc2c[nH]c3ccccc23)NC(=O)[C@H](Cc2ccccc2)NC(=O)[C@H](Cc2ccccc2)NC1=O`, for which the IC50 was found to be 40 nM in assay [1]; 90 nM in assay [2]; 218 nM in assay [3]; 69 nM in assay [4]; 1.4 nM in assay [5].

`CC(=O)N[C@H]1CSS[C@H](C(=O)O)NC(=O)[C@H](Cc2ccccc2)NC(=O)[C@H]([C@@H](C)O)NC(=O)[C@H](CCCCN)NC(=O)[C@@H](Cc2c[nH]c3ccccc23)NC(=O)[C@H](Cc2ccccc2)NC(=O)[C@H](Cc2ccccc2)NC1=O`: the IC50 in assay [1] stood at 41 nM; in assay [2] it was 50 nM; in assay [3], 358 nM; in assay [4], 20 nM; in assay [5], 2 nM.

For the molecule `CC(=O)N[C@H]1CSSC[C@@H](C(=O)O)NC(=O)[C@H](Cc2ccccc2)NC(=O)[C@H]([C@@H](C)O)NC(=O)[C@H](CCCCN)NC(=O)[C@@H](Cc2c[nH]c3ccccc23)NC(=O)[C@H](Cc2ccccc2)NC(=O)[C@H](Cc2ccccc2)NC1=O`, the IC50 stood at 49 nM in assay [1]; 26 nM in assay [2]; 22 nM in assay [3]; 7.1 nM in assay [4]; 1.3 nM in assay [5].

For `CC(=O)N[C@@H]1SSC[C@H](C(=O)O)NC(=O)[C@H](Cc2ccccc2)NC(=O)[C@H]([C@@H](C)O)NC(=O)[C@H](CCCCN)NC(=O)[C@@H](Cc2c[nH]c3ccccc23)NC(=O)[C@H](Cc2ccccc2)NC(=O)[C@H](Cc2ccccc2)NC1=O`, the IC50 was 11 nM in assay [1]; 50 nM in assay [2]; greater than 1000 nM in assay [3]; 69 nM in assay [4]; 4.4 nM in assay [5].

Consider `CC(=O)N[C@@H]1SSC[C@@H](C(=O)O)NC(=O)[C@H](Cc2ccccc2)NC(=O)[C@H]([C@@H](C)O)NC(=O)[C@H](CCCCN)NC(=O)[C@@H](Cc2c[nH]c3ccccc23)NC(=O)[C@H](Cc2ccccc2)NC(=O)[C@H](Cc2ccccc2)NC1=O`, for which the IC50 in assay [1] worked out at 33 nM; in assay [2], 9 nM; in assay [3], 79 nM; in assay [4], 6 nM; in assay [5], 1.9 nM.

On to `CC(=O)N[C@H]1SS[C@H](C(=O)O)NC(=O)[C@H](Cc2ccccc2)NC(=O)[C@H]([C@@H](C)O)NC(=O)[C@H](CCCCN)NC(=O)[C@@H](Cc2c[nH]c3ccccc23)NC(=O)[C@H](Cc2ccccc2)NC(=O)[C@H](Cc2ccccc2)NC1=O`, for which the IC50 in assay [1] was 109 nM; in assay [2] it was 107 nM; in assay [3] it was greater than 1000 nM; in assay [4], 45 nM; in assay [5], 2.7 nM.

In the case of `CC(=O)N[C@@H]1CSSC[C@H](C(=O)O)NC(=O)[C@H](Cc2ccccc2)NC(=O)[C@H]([C@@H](C)O)NC(=O)[C@H](CCCCN)NC(=O)[C@@H](Cc2c[nH]c3ccccc23)NC(=O)[C@H](Cc2ccccc2)NC(=O)[C@H](Cc2ccccc2)NC1=O`, the IC50 in assay [1] is 9 nM; in assay [2], 7.4 nM; in assay [3] it was greater than 1000 nM; in assay [4], 15 nM; in assay [5] it was 3.25 nM.

Turning to `CC(=O)N[C@H]1SS[C@@H](C(=O)O)NC(=O)[C@H](Cc2ccccc2)NC(=O)[C@H]([C@@H](C)O)NC(=O)[C@H](CCCCN)NC(=O)[C@@H](Cc2c[nH]c3ccccc23)NC(=O)[C@H](Cc2ccccc2)NC(=O)[C@H](Cc2ccccc2)NC1=O`, the IC50 in assay [1] was 13 nM; in assay [2], 21 nM; in assay [3], greater than 1000 nM; in assay [4], 31 nM; in assay [5], 2.2 nM.

As for `CC(=O)N[C@@H]1SS[C@@H](C(=O)O)NC(=O)[C@H](Cc2ccccc2)NC(=O)[C@H]([C@@H](C)O)NC(=O)[C@H](CCCCN)NC(=O)[C@@H](Cc2c[nH]c3ccccc23)NC(=O)[C@H](Cc2ccccc2)NC(=O)[C@H](Cc2ccccc2)NC1=O`, the IC50 in assay [1] was 3.9 nM; in assay [2], 60 nM; in assay [3] it was greater than 1000 nM; in assay [4], 50 nM; in assay [5], 2.6 nM.

For `CC(=O)N[C@H]1SSC[C@@H](C(=O)O)NC(=O)[C@H](Cc2ccccc2)NC(=O)[C@H]([C@@H](C)O)NC(=O)[C@H](CCCCN)NC(=O)[C@@H](Cc2c[nH]c3ccccc23)NC(=O)[C@H](Cc2ccccc2)NC(=O)[C@H](Cc2ccccc2)NC1=O`, the IC50 in assay [1] was determined as 42 nM; in assay [2], 46 nM; in assay [3], 416 nM; in assay [4], 14 nM; in assay [5], 3.1 nM.

For the molecule `CC(=O)N[C@H]1CSS[C@@H](C(=O)O)NC(=O)[C@H](Cc2ccccc2)NC(=O)[C@H]([C@@H](C)O)NC(=O)[C@H](CCCCN)NC(=O)[C@@H](Cc2c[nH]c3ccccc23)NC(=O)[C@H](Cc2ccccc2)NC(=O)[C@H](Cc2ccccc2)NC1=O`, the IC50 in assay [1] is 5.4 nM; in assay [2], 82 nM; in assay [3], greater than 1000 nM; in assay [4], 53 nM; in assay [5] it was 6 nM.

In the case of `C[C@@H](O)[C@@H]1NC(=O)[C@H](CCCCN)NC(=O)[C@@H](Cc2c[nH]c3ccccc23)NC(=O)[C@H](Cc2ccccc2)NC(=O)[C@H](Cc2ccccc2)NC(=O)C(N)CSSC[C@@H](C(=O)O)NC(=O)[C@H](Cc2ccccc2)NC1=O` (single isomer, unassigned), the IC50 in assay [1] was 14.5 nM; in assay [2] it was 9.5 nM; in assay [3] it was 14 nM; in assay [4], 4.5 nM; in assay [5] it was 1 nM.
